Results: patent US5385842A, “Anthraquinones as inhibitors of sulfide production from sulfate-reducing bacteria” (E. I. Du Pont de Nemours and Company, priority 1993, dated 1995)

What was measured:
[1] = test system: sulfate reducing bacteria (crude enrichments from various naturally-occuring environments); experiment: Sulfide production by crude enrichments from naturally-occurring environments; format: cell-based; conditions: 5 ppm
Description: All samples were grown on standard BTZ-3 medium (as defined in Example 1) under hydrogen (80%) carbon dioxide (20%) with 10 mM acetate and 0.1% yeast extract. Mud samples were inoculated into this medium and allowed to grow for 24 h to enrich for sulfate reducing bacteria. A 1 ml aliquot of this enrichment was transferred to fresh medium and the sulfide evolved was measured over a three day period. Sulfide was assayed as described by Siegal, Anal. Biochem. 11: 126-132, 1965, herein incorporated by reference.

D. multispirans = experiment: Growth of different sulfate-reducers with 1,8-dihydroxyanthraquinone (Example 5); format: cell-based; conditions: 3 ppm, 40 hours; control >1.5
Description: (§1) Growth was monitored as optical density at 660 nm for 40 hours.

D. desulfuricans G100A [2] = experiment: Effect of dithionite-reduced anthraquinones on growth of D. desulfuricans G100A; format: cell-based
Description: Three anthraquinones, 1,8-dihydroxy-, 1-chloro-, and 3-chloro-2-carboxy- were prepared as 1 ml of 1000 ppm solutions in acetone for the first two compounds or water for the third. These solutions were then treated with 1 mg of the strong reducing agent, sodium dithionite. 50 ul of each solution (for a final culture concentration of 5 ppm) was used immediately to treat growing cultures of D. desulfuricans G100A in BTZ-3 medium as defined in Example 1. The compounds were added to the 10 ml cultures at 15 h of growth.

[3] = test system: D. desulfuricans #ATCC27774; experiment: Respiration rate (hydrogen gas uptake) with sulfate as electron acceptor; conditions: Desulfovibrio desulfuricans, ATCC27774, 4 h, pH 7, read-out: Gas Uptake (as percent of control)
[4] = test system: D. desulfuricans #ATCC 27774; experiment: Growth of different sulfate-reducers with 1,8-dihydroxyanthraquinone (Example 9); format: cell-based; conditions: 3 ppm, 40 hours; control .45
Description: as §1

D. desulfuricans G100A [5] = experiment: Growth of D. desulfuricans G100A after addition of inhibitor at 12 h; format: cell-based
Description: Four 10 ml culture tubes of BTZ-3 medium as defined in Example 1 supplemented with sodium lactate (40 mM) and sodium sulfate (30 mM) and 0.5 ml of reducing agent were inoculated with 100 ul of a fully grown suspension of D. desulfuricans G100A. The culture was allowed to grow and the optical density at 660 nm was monitored until the cells entered into exponential growth (approx. 12-15 h, O.D. 660=0.1-0.2). At this time 100 ul of a 300 ppm solution of 1,8 dihydroxyanthraquinone, 1-chloranthraquinone or 3-chloro-2-anthraquinone carboxylic acid, respectively, was added to one of the tubes. The ethanol:water (80:20) solvent (100 μl ) was added to the fourth tube to serve as an uninhibited control.
#3 ppm inhibitor added at 12 hours

## O=C1c2cccc(O)c2C(=O)c2c(O)cccc21 [1,8-Dihydroxyanthraquinone]
[1]
  inhibition of enrichments (in words): the majority of enrichments from natural sources were inhibited
[1]; SM-Lewes (Lewes saltmarsh), control 6.4
  sulfide production, treated: 4.5 umol sulfide/day
[1]; VF-A2 (Valley Garden Park, aerobic), control 64.0
  sulfide production, treated: -11.0 umol sulfide/day
[1]; VF-A (Valley Garden Park, aerobic), control 24.0
  sulfide production, treated: -2.0 umol sulfide/day
[1]; VF-AN (Valley Garden Park, anaerobic), control 67.0
  sulfide production, treated: 2.8 umol sulfide/day
[1]; VS-A (Valley Stream State Park, aerobic), control 49.0
  sulfide production, treated: -1.0 umol sulfide/day
[1]; VS-AN2 (Valley Stream State Park, anaerobic), control 116.0
  sulfide production, treated: 0.0 umol sulfide/day
[1]; VS-AN (Valley Stream State Park, anaerobic), control 12.0
  sulfide production, treated: -4.0 umol sulfide/day
[1]; WADS (Wilmington anaerobic digestor), control 106.7
  sulfide production, treated: 71.0 umol sulfide/day
[1]; WCC-A1 (White Clay Creek Preserve, aerobic), control 411.0
  sulfide production, treated: 67.0 umol sulfide/day
[1]; WCC-A2 (White Clay Creek Preserve, aerobic), control 388.0
  sulfide production, treated: 49.0 umol sulfide/day
[1]; WCC-AN1 (White Clay Creek Preserve, anaerobic), control 345.0
  sulfide production, treated: 80.0 umol sulfide/day
[1]; WCC-AN2 (White Clay Creek Preserve, anaerobic), control 288.0
  sulfide production, treated: 37.0 umol sulfide/day
D. multispirans
  Optical Density @ 660 nm, treated: .28
D. desulfuricans G100A [2]; 0 h, before addition of 5 ppm dithionite-reduced compound at 15 h, control 0.02
  Optical Density @ 660 nm: 0.02
D. desulfuricans G100A [2]; 2 h, before addition of 5 ppm dithionite-reduced compound at 15 h, control 0.02
  Optical Density @ 660 nm: 0.02
D. desulfuricans G100A [2]; 12 h, before addition of 5 ppm dithionite-reduced compound at 15 h, control 0.08
  Optical Density @ 660 nm: 0.10
D. desulfuricans G100A [2]; 15 h, time of addition of 5 ppm dithionite-reduced compound, control 0.18
  Optical Density @ 660 nm: 0.2
D. desulfuricans G100A [2]; 17 h, 5 ppm dithionite-reduced compound added at 15 h, control 0.26
  Optical Density @ 660 nm: 0.24
D. desulfuricans G100A [2]; 20 h, 5 ppm dithionite-reduced compound added at 15 h, control 0.37
  Optical Density @ 660 nm: 0.23
D. desulfuricans G100A [2]; 25 h, 5 ppm dithionite-reduced compound added at 15 h, control 0.50
  Optical Density @ 660 nm: 0.22
D. desulfuricans G100A [2]; 30 h, 5 ppm dithionite-reduced compound added at 15 h, control 0.98
  Optical Density @ 660 nm: 0.23
D. desulfuricans G100A [2]; 45 h, 5 ppm dithionite-reduced compound added at 15 h, control 1.50
  Optical Density @ 660 nm: 0.25
[3]
  activity at 0.6 ppm: 66%
  activity at 1.5 ppm: 45%
  activity at 3 ppm: 30%
[4]
  Optical Density @ 660 nm, treated: .08
D. desulfuricans G100A [5]; 0 h of growth, before addition of 3 ppm inhibitor at 12 h
  optical density reading at 660 nm: .01
D. desulfuricans G100A [5]; 10 h of growth, before addition of 3 ppm inhibitor at 12 h
  optical density reading at 660 nm: .12
D. desulfuricans G100A [5]; 12 h of growth, 3 ppm inhibitor added at 12 h
  optical density reading at 660 nm: .20
D. desulfuricans G100A [5]; 14 h of growth, 3 ppm inhibitor added at 12 h
  optical density reading at 660 nm: .19
D. desulfuricans G100A [5]; 18 h of growth, 3 ppm inhibitor added at 12 h
  optical density reading at 660 nm: .16
D. desulfuricans G100A [5]; 20 h of growth, 3 ppm inhibitor added at 12 h
  optical density reading at 660 nm: .16
D. desulfuricans G100A [5]; 24 h of growth, 3 ppm inhibitor added at 12 h
  optical density reading at 660 nm: .16
D. desulfuricans G100A [5]; 29 h of growth, 3 ppm inhibitor added at 12 h
  optical density reading at 660 nm: .18
D. desulfuricans G100A [5]; 34 h of growth, 3 ppm inhibitor added at 12 h
  optical density reading at 660 nm: .18
D. desulfuricans G100A [5]; 62 h of growth, 3 ppm inhibitor added at 12 h
  optical density reading at 660 nm: .30
D. desulfuricans G100A [5]; 92 h of growth, 3 ppm inhibitor added at 12 h
  optical density reading at 660 nm: .28
